# Molecular target: T1, human TRPC6 (Homo sapiens, UniProt Q9Y210)
# T1 construct: expressed in transfected cells
# T1 sequence (Q9Y210 1-931): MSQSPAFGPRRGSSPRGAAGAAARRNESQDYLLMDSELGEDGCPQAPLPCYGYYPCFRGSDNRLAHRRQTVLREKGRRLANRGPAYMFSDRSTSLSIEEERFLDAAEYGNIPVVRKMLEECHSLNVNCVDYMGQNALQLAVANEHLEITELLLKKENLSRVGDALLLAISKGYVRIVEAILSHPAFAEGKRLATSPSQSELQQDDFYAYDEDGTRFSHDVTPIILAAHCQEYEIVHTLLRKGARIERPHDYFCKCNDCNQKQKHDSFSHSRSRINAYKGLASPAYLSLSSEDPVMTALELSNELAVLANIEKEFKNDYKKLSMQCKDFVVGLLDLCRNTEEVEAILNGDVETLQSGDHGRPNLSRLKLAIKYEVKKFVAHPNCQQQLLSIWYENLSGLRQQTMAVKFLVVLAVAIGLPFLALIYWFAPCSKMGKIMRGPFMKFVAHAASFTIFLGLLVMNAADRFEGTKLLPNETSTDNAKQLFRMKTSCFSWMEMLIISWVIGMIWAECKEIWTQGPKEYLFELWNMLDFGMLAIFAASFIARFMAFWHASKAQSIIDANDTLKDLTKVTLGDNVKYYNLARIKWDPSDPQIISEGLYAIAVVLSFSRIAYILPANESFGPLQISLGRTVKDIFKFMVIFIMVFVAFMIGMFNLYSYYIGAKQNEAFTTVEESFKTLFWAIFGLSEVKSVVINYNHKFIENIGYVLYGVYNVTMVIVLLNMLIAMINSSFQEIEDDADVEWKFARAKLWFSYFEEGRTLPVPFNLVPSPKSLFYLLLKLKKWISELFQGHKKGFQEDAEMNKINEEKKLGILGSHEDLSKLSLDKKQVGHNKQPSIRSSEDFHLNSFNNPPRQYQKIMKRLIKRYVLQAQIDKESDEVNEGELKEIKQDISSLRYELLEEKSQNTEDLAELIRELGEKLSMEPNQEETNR
# Experiment: TRPC6 calcium flux assay (FLIPR, OAG-stimulated calcium influx)
# Assay type: cell-based
# Details: HEK293 cells stably transfected with human TRPC6, read-out: hTRPC6 Potency
# Procedure, shortened: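 IC50 derived by plotting background-corrected peak fluorescence (180 s window, normalized to OAG-triggered signal vs buffer) against dose. Stable human TRPC6 HEK293 line was dye-loaded, exposed to compound 25 min, then challenged with 50 uM final OAG in 2 mM Ca2+ HEPES buffer pH 7.2, 0.5% DMSO.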
row,IC50 [µM],Structure (SMILES)
1,1.05,"N[C@@H]1CN(c2nc3cc(C(F)(F)F)ccc3n2CC(=O)N2CCOCC2)CC[C@@H]1F [Example 478, 2-(2-((3R,4S)-3-amino-4-fluoropiperidin-1-yl)-5-(trifluoromethyl)-1H-benzo[d]imidazol-1-yl)-1-morpholinoethan-1-one]"
2,1.2,"CN[C@@H]1CN(c2nc3cc(F)ccc3n2CC(=O)N(C)CC(F)(F)F)CC[C@H]1F [Example 479, 2-(5-fluoro-2-((3R,4R)-4-fluoro-3-(methylamino)piperidin-1-yl)-1H-benzo[d]imidazol-1-yl)-N-methyl-N-(2,2,2-trifluoroethyl)acetamide]"
3,1.2,"CC1CN(c2nc3ccc(F)cc3n2CC(=O)N(C)CC(F)(F)F)CC1N (stereo not drawn) [Example 480, 2-(2-(3-amino-4-methylpyrrolidin-1-yl)-6-fluoro-1H-benzo[d]imidazol-1-yl)-N-methyl-N-(2,2,2-trifluoroethyl)acetamide]"
4,2.4,"CN(CC(F)(F)F)C(=O)Cn1c(N2CC[C@@H](O)[C@H](N)C2)nc2ccc(F)cc21 [Example 481, 2-(2-((3R,4R)-3-amino-4-hydroxypiperidin-1-yl)-6-fluoro-1H-benzo[d]imidazol-1-yl)-N-methyl-N-(2,2,2-trifluoroethyl)acetamide]"
5,2.74,"CN(CC(F)(F)F)C(=O)Cn1c(N2CCC(F)(F)[C@H](N)C2)nc2cc(F)ccc21 [Example 482, (R)-2-(2-(3-amino-4,4-difluoropiperidin-1-yl)-5-fluoro-1H-benzo[d]imidazol-1-yl)-N-methyl-N-(2,2,2-trifluoroethyl)acetamide]"
6,2.74,"CO[C@@H]1CCN(c2nc3cc(F)ccc3n2CC(=O)N(C)CC(F)(F)F)C[C@H]1N [Example 483, 2-(2-((3R,4R)-3-amino-4-methoxypiperidin-1-yl)-5-fluoro-1H-benzo[d]imidazol-1-yl)-N-methyl-N-(2,2,2-trifluoroethyl)acetamide]"
7,> 3.75,"CO[C@@H]1CCN(c2nc3ccc(F)cc3n2CC(=O)N(C)CC(F)(F)F)C[C@H]1N [Example 485, 2-(2-((3R,4R)-3-amino-4-methoxypiperidin-1-yl)-6-fluoro-1H-benzo[d]imidazol-1-yl)-N-methyl-N-(2,2,2-trifluoroethyl)acetamide]"
8,> 1.75,"CN(CC(F)(F)F)C(=O)Cn1c(N2CCC(F)(CN)C2)nc2ccc(F)cc21 (stereo not drawn) [Example 486, 2-(2-(3-(aminomethyl)-3-fluoropyrrolidin-1-yl)-6-fluoro-1H-benzo[d]imidazol-1-yl)-N-methyl-N-(2,2,2-trifluoroethyl)acetamide]"
9,> 3.75,"CN(CC(F)(F)F)C(=O)Cn1c(N2CCC(F)(CN)C2)nc2cc(F)ccc21 (stereo not drawn) [Example 487, 2-(2-(3-(aminomethyl)-3-fluoropyrrolidin-1-yl)-5-fluoro-1H-benzo[d]imidazol-1-yl)-N-methyl-N-(2,2,2-trifluoroethyl)acetamide]"
10,> 3.75,"CN(CC(F)(F)F)C(=O)Cn1c(N2CC[C@H]3OCCN[C@@H]3C2)nc2ccc(F)cc21 [Example 488, 2-(6-fluoro-2-((4aR,8aR)-hexahydro-2H-pyrido[4,3-b][1,4]oxazin-6(5H)-yl)-1H-benzo[d]imidazol-1-yl)-N-methyl-N-(2,2,2-trifluoroethyl)acetamide]"
11,> 3.75,"CN(CC(F)(F)F)C(=O)Cn1c(N2CC[C@H](N)C2)nc2ccc(F)cc21 [Example 489, (S)-2-(2-(3-aminopyrrolidin-1-yl)-6-fluoro-1H-benzo[d]imidazol-1-yl)-N-methyl-N-(2,2,2-trifluoroethyl)acetamide]"
12,> 3.75,"CN(CC(F)(F)F)C(=O)Cn1c(N2CC[C@@H](N)C2)nc2ccc(F)cc21 [Example 490, (R)-2-(2-(3-aminopyrrolidin-1-yl)-6-fluoro-1H-benzo[d]imidazol-1-yl)-N-methyl-N-(2,2,2-trifluoroethyl)acetamide]"
13,> 3.75,"CN(CC(F)(F)F)C(=O)Cn1c(N2CC[C@@H](CN)C2)nc2ccc(F)cc21 [Example 491, (S)-2-(2-(3-(aminomethyl)pyrrolidin-1-yl)-6-fluoro-1H-benzo[d]imidazol-1-yl)-N-methyl-N-(2,2,2-trifluoroethyl)acetamide]"

# The remaining lines, values behind:
row,Structure (SMILES),IC50 [µM]
1,"CO[C@H]1CCN(c2nc3ccc(F)cc3n2Cc2ncc(Cl)cn2)C[C@H]1N [Example 467, (3R,4S)-1-(1-((5-chloropyrimidin-2-yl)methyl)-6-fluoro-1H-benzo[d]imidazol-2-yl)-4-methoxypiperidin-3-amine]",0.123
2,"CN(C)C(=O)Cn1c(N2CC[C@@H](F)[C@H](N)C2)nc2ccc(OC(F)(F)F)cc21 [Example 468, 2-(2-((3R,4R)-3-amino-4-fluoropiperidin-1-yl)-6-(trifluoromethoxy)-1H-benzo[d]imidazol-1-yl)-N,N-dimethylacetamide]",0.178
3,"CN[C@@H]1CN(c2nc3ccc(F)cc3n2CC(=O)N(C)CC(F)(F)F)CC[C@H]1F [Example 469, 2-(6-fluoro-2-((3R,4R)-4-fluoro-3-(methylamino)piperidin-1-yl)-1H-benzo[d]imidazol-1-yl)-N-methyl-N-(2,2,2-trifluoroethyl)acetamide]",0.19
4,"N[C@@H]1CN(c2nc3cc(Br)ccc3n2CC(=O)N2CCC2)CC[C@H]1F [Example 470, 2-(2-((3R,4R)-3-amino-4-fluoropiperidin-1-yl)-5-bromo-1H-benzo[d]imidazol-1-yl)-1-(azetidin-1-yl)ethan-1-one]",0.219
5,"CN(C)C(=O)Cn1c(N2CC[C@H](F)[C@H](N)C2)nc2cc(Cl)ccc21 [Example 471, 2-(2-((3R,4S)-3-amino-4-fluoropiperidin-1-yl)-5-chloro-1H-benzo[d]imidazol-1-yl)-N,N-dimethylacetamide]",0.36
6,"CN(CC(F)(F)F)C(=O)Cn1c(N2CCCC3(CCCN3)C2)nc2ccc(F)cc21 (stereo not drawn) [Example 472, 2-(6-fluoro-2-(1,7-diazaspiro[4.5]decan-7-yl)-1H-benzo[d]imidazol-1-yl)-N-methyl-N-(2,2,2-trifluoroethyl)acetamide]",0.383
7,"N[C@@H]1CN(c2nc3cc(C(F)(F)F)ccc3n2CC(=O)N2CCOCC2)CC[C@H]1F [Example 473, 2-(2-((3R,4R)-3-amino-4-fluoropiperidin-1-yl)-5-(trifluoromethyl)-1H-benzo[d]imidazol-1-yl)-1-morpholinoethan-1-one]",0.398
8,"CN(C)C(=O)Cn1c(N2CC[C@@H](F)[C@H](N)C2)nc2cc(OC(F)(F)F)ccc21 [Example 474, 2-(2-((3R,4R)-3-amino-4-fluoropiperidin-1-yl)-5-(trifluoromethoxy)-1H-benzo[d]imidazol-1-yl)-N,N-dimethylacetamide]",0.411
9,"N[C@@H]1CN(c2nc3cc(OC(F)(F)F)ccc3n2CC(=O)N2CCOCC2)CC[C@H]1F [Example 475, 2-(2-((3R,4R)-3-amino-4-fluoropiperidin-1-yl)-5-(trifluoromethoxy)-1H-benzo[d]imidazol-1-yl)-1-morpholinoethan-1-one]",0.62
10,COc1cc(F)cc2nc(N3CC[C@@H](F)[C@H](N)C3)n(Cc3ccc(C#N)cn3)c12 [Example 476],0.763
11,"CO[C@H]1CCN(c2nc3cc(F)ccc3n2Cc2ncc(Cl)cn2)C[C@H]1N [Example 477, (3R,4S)-1-(1-((5-chloropyrimidin-2-yl)methyl)-5-fluoro-1H-benzo[d]imidazol-2-yl)-4-methoxypiperidin-3-amine]",1.03

# From patent US11332459B2 (TEIJIN PHARMA LIMITED, priority 2017, dated 2022)
